Laboratory results from ChEMBL document CHEMBL3259724, “Design, syntheses, and characterization of piperazine based chemokine receptor CCR5 antagonists as anti prostate cancer agents” (Bioorg Med Chem Lett, 2014).

Legend:
[1] = Cytotoxicity against mouse NIH/3T3 cells after 48 hrs by neutral red uptake assay; format: cell-based, NIH3T3; settings: read-out: TC50
[2] = Antiproliferative activity against human M12 cells after 72 hrs by WST-1 assay; format: functional, cell-based; settings: M12, 72 h
PC-3 = test: Antiproliferative activity against human PC3 cells after 72 hrs by WST-1 assay; format: functional, cell-based; settings: PC-3, 72 h
[3] = target: C-C chemokine receptor type 5 (Homo sapiens, UniProt P51681); test: Antagonist activity at CCR5 (unknown origin) expressed in human MOLT4 cells assessed as inhibition of RANTES-stimulated calcium mobilization treated for 15 mins prior to RANTES addition by spectrophotometric analysis; format: functional, cell-based, MOLT-4
Sequence of C-C chemokine receptor type 5 (P51681 whole entry): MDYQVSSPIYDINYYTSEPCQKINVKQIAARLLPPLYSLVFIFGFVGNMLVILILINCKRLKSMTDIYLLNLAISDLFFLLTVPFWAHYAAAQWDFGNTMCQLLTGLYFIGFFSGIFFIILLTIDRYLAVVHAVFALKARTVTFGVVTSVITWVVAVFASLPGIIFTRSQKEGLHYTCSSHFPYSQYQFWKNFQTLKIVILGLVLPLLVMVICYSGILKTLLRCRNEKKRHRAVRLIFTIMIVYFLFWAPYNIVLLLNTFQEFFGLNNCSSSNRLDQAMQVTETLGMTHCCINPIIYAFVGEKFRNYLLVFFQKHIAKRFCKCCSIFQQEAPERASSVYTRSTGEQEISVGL

What does the source list for `CC(=O)Nc1ccc(CN2CCN(c3ccc(OC(C)C)c(NC(=O)c4cnccn4)c3)CC2)cc1`?
CC50 at 48 h [1]: 7.8 µM; IC50 [2]: 39 µM; IC50 (PC-3): 24.3 µM

Which CC50 at 48 h [1] does the source give for `CC(C)Oc1ccc(N2CCN(Cc3ccccc3[N+](=O)[O-])CC2)cc1NC(=O)c1cnccn1` here?
The CC50 at 48 h was > 50 µM.

And the IC50 [2]?
The IC50 was 183 µM.

And the IC50 [3]?
Its IC50 is 16.8 µM.

And the IC50 (PC-3)?
The IC50 was 62.9 µM.

Which CC50 at 48 h [1] does the source give for `CC(C)Oc1ccc(N2CCN(Cc3ccc(Cl)cc3)CC2)cc1NC(=O)c1cnccn1` here?
Its CC50 at 48 h is 1.6 µM.

And the IC50 [2]?
Its IC50 is 26.3 µM.

What about the IC50 (PC-3) of the same compound?
Its IC50 is 56.1 µM.

What does the source list for `COC(=O)c1ccc(CN2CCN(c3ccc(OC(C)C)c(NC(=O)c4cnccn4)c3)CC2)cc1`?
IC50 [2]: 73.7 µM; IC50 (PC-3): 91.5 µM

Which CC50 at 48 h [1] does the source give for `CCN(CC)c1ccc(CN2CCN(c3ccc(OC(C)C)c(NC(=O)c4cnccn4)c3)CC2)cc1` here?
Its CC50 at 48 h is 31.9 µM.

And the IC50 [2]?
The IC50 was 11.4 µM.

What about the IC50 (PC-3) of the same compound?
The IC50 was 6.5 µM.

Which CC50 at 48 h [1] does the source give for `CC(C)Oc1ccc(N2CCN(Cc3ccc(N)cc3)CC2)cc1NC(=O)c1cnccn1` here?
Its CC50 at 48 h is 10.7 µM.

And the IC50 [2]?
The IC50 was 19.7 µM.

What about the IC50 (PC-3) of the same compound?
The IC50 was 20.1 µM.

For `CC(C)Oc1ccc(N2CCN(Cc3ccc(Br)cc3)CC2)cc1NC(=O)c1cnccn1`, which CC50 at 48 h [1] is on record?
The CC50 at 48 h was > 50 µM.

And the IC50 [2]?
Its IC50 is 48.8 µM.

And the IC50 (PC-3)?
Its IC50 is 31.5 µM.

Which IC50 [2] does the source give for `Cc1ccc(-c2ccc3c(c2)C=C(C(=O)Nc2ccc(C[N+](C)(C)C4CCOCC4)cc2)CCC3)cc1` here?
The IC50 was 20.4 µM.

And the IC50 (PC-3)?
The IC50 was 37.9 µM.

Which IC50 [2] does the source give for `CSc1ccc(CN2CCN(c3ccc(OC(C)C)c(NC(=O)c4cnccn4)c3)CC2)cc1` here?
The IC50 was > 100 µM.

And the IC50 (PC-3)?
The IC50 was 78 µM.

With `CC(C)Oc1ccc(N2CCN(Cc3ccc(C(=O)O)cc3)CC2)cc1NC(=O)c1cnccn1` as the compound, how does the IC50 [2] read?
Its IC50 is 129 µM.

What about the IC50 (PC-3) of the same compound?
The IC50 was 74 µM.

What does the source list for `CC(C)Oc1ccc(N2CCN(Cc3ccc([N+](=O)[O-])cc3)CC2)cc1NC(=O)c1cnccn1`?
CC50 at 48 h [1]: 29.3 µM; IC50 [2]: 78.7 µM; IC50 (PC-3): 49.1 µM

With `CC(C)Oc1ccc(N2CCN(Cc3ccc(N(C)C)cc3)CC2)cc1NC(=O)c1cnccn1` as the compound, how does the CC50 at 48 h [1] read?
Its CC50 at 48 h is > 50 µM.

And the IC50 [2]?
Its IC50 is 65.9 µM.

And the IC50 (PC-3)?
The IC50 was 71.2 µM.

Which IC50 [2] does the source give for `CC(C)Oc1ccc(N2CCN(Cc3ccc(S(C)(=O)=O)cc3)CC2)cc1NC(=O)c1cnccn1` here?
The IC50 was 141 µM.

What about the IC50 (PC-3) of the same compound?
The IC50 was > 100 µM.

Which results are given for `Cc1ccc(CN2CCN(c3ccc(OC(C)C)c(NC(=O)c4cnccn4)c3)CC2)cc1`?
IC50 [2]: 15.8 µM; IC50 (PC-3): 19.7 µM

With `CC(C)Oc1ccc(N2CCN(Cc3ccccc3)CC2)cc1NC(=O)c1cnccn1` as the compound, how does the CC50 at 48 h [1] read?
The CC50 at 48 h was 46.6 µM.

And the IC50 [2]?
Its IC50 is 29.9 µM.

What about the IC50 (PC-3) of the same compound?
The IC50 was 67 µM.
